Like-named read-outs stand apart in the source and are kept apart here.
Experiments:
[1] = system: Morganella morganii; assay: Antibiotic susceptibility of Morganella morganii strain; assay type: cell-based; details: Mm1 (Morganella morganii)
Excerpt: (§1) All these MDR-bacteria are at least resistant to two classes of the antibiotics among five groups and/or specific antibiotics including quinolones/fluorquinolones, carbapenems, cephalosporins, aminoglycosides and piperacillin-tazobactam.

[2] = system: Klebsiella pneumonia; assay: Antibiotic susceptibility of Klebsiella pneumonia strains; assay type: cell-based
Excerpt: as §1

[3] = system: MDR Acinetobacter baumannii; assay type: cell-based
Excerpt: as §1

[4] = system: MDR E. coli; assay type: cell-based
Excerpt: as §1

[5] = system: Enterobacter cloacae complex; assay: Antibiotic susceptibility of Enterobacter cloacae complex strain; assay type: cell-based; details: Ecc1 (Enterobacter cloacae complex)
Excerpt: as §1

[6] = system: Citrobacter koseri; assay: Antibiotic susceptibility of Citrobacter koseri strain; assay type: cell-based; details: Ck1 (Citrobacter koseri)
Excerpt: as §1

[7] = system: Coagulase negative Staphylococcus; assay: Antibiotic susceptibility of coagulase negative Staphylococcus strains; assay type: cell-based
[8] = system: S. aureus ATCC strains and MRSA; assay type: cell-based, Staphylococcus aureus
[9] = system: Staphylococcus epidermidis; assay type: cell-based
Protocol: (§2) It was also tested whether compounds #63 and #285 can inhibit other coagulase-negative Staphylococcus (CNS) including S. epidermidis, S. hominis, etc. […].

[10] = system: Staphylococcus hominis; assay type: cell-based
Protocol: as §2

**Q.** How did the Antibiotic susceptibility [1] turn out when C[C@@H](O)[C@H]1C(=O)N2C(C(=O)O)=C(SCCN=CN)C[C@H]12 [IPM, Imipenem] was run?
**A.** S

**Q.** What about the Antibiotic susceptibility ([2]; Kp1 (Klebsiella pneumonia)) of the same molecule?
**A.** S

**Q.** And the Antibiotic susceptibility ([2]; Kp6 (Klebsiella pneumonia))?
**A.** S

**Q.** And the Antibiotic susceptibility ([3]; Ab1 (Acinetobacter baumannii))?
**A.** S

**Q.** And the Antibiotic susceptibility ([3]; Ab2 (Acinetobacter baumannii))?
**A.** I

**Q.** What about the Antibiotic susceptibility ([3]; Ab3 (Acinetobacter baumannii)) of the same molecule?
**A.** I

**Q.** What about the Antibiotic susceptibility ([3]; Ab4 (Acinetobacter baumannii)) of the same molecule?
**A.** I

**Q.** What about the Antibiotic susceptibility ([3]; Ab5 (Acinetobacter baumannii)) of the same molecule?
**A.** R

**Q.** And the Antibiotic susceptibility ([4]; Ec1 (E. coli))?
**A.** S

**Q.** And the Antibiotic susceptibility ([4]; Ec2 (E. coli))?
**A.** S

**Q.** And the Antibiotic susceptibility ([4]; Ec3 (E. coli))?
**A.** S

**Q.** What about the Antibiotic susceptibility ([4]; Ec4 (E. coli)) of the same molecule?
**A.** S

**Q.** What about the Antibiotic susceptibility ([4]; Ec5 (E. coli)) of the same molecule?
**A.** S

**Q.** And the Antibiotic susceptibility [5]?
**A.** S

**Q.** What about the Antibiotic susceptibility [6] of the same molecule?
**A.** S

**Q.** Which Antibiotic susceptibility [1] does the source give for C[C@H]1COc2c(N3CCN(C)CC3)c(F)cc3c(=O)c(C(=O)O)cn1c23 [LVX, levofloxacin] here?
**A.** R

**Q.** What about the Antibiotic susceptibility ([7]; CNS1 (Coagulase negative Staphylococcus)) of the same molecule?
**A.** S

**Q.** What about the Antibiotic susceptibility ([7]; CNS2 (Coagulase negative Staphylococcus)) of the same molecule?
**A.** R

**Q.** And the Antibiotic susceptibility ([2]; Kp1 (Klebsiella pneumonia))?
**A.** S

**Q.** What about the Antibiotic susceptibility ([2]; Kp6 (Klebsiella pneumonia)) of the same molecule?
**A.** R

**Q.** What about the Antibiotic susceptibility ([3]; Ab1 (Acinetobacter baumannii)) of the same molecule?
**A.** R

**Q.** And the Antibiotic susceptibility ([3]; Ab2 (Acinetobacter baumannii))?
**A.** I

**Q.** And the Antibiotic susceptibility ([3]; Ab3 (Acinetobacter baumannii))?
**A.** R

**Q.** And the Antibiotic susceptibility ([3]; Ab4 (Acinetobacter baumannii))?
**A.** R

**Q.** What about the Antibiotic susceptibility ([3]; Ab5 (Acinetobacter baumannii)) of the same molecule?
**A.** R

**Q.** What about the Antibiotic susceptibility ([4]; Ec1 (E. coli)) of the same molecule?
**A.** S

**Q.** What about the Antibiotic susceptibility ([4]; Ec2 (E. coli)) of the same molecule?
**A.** R

**Q.** What about the Antibiotic susceptibility ([4]; Ec3 (E. coli)) of the same molecule?
**A.** S

**Q.** What about the Antibiotic susceptibility ([4]; Ec4 (E. coli)) of the same molecule?
**A.** R

**Q.** And the Antibiotic susceptibility ([4]; Ec5 (E. coli))?
**A.** R

**Q.** And the Antibiotic susceptibility [5]?
**A.** S

**Q.** And the Antibiotic susceptibility ([8]; S. aureus ATCC 25923)?
**A.** S

**Q.** And the Antibiotic susceptibility ([8]; S. aureus ATCC 29213)?
**A.** S

**Q.** And the Antibiotic susceptibility ([8]; S. aureus ATCC BAA 976)?
**A.** S

**Q.** And the Antibiotic susceptibility ([8]; S. aureus ATCC BAA 977)?
**A.** S

**Q.** What about the Antibiotic susceptibility ([8]; S. aureus ATCC BAA 1026) of the same molecule?
**A.** R

**Q.** What about the Antibiotic susceptibility ([8]; Sa1 (MRSA)) of the same molecule?
**A.** R

**Q.** And the Antibiotic susceptibility ([8]; Sa2 (MRSA))?
**A.** R

**Q.** What about the Antibiotic susceptibility ([8]; Sa3 (MRSA)) of the same molecule?
**A.** R

**Q.** And the Antibiotic susceptibility ([8]; Sa6 (MRSA))?
**A.** R

**Q.** And the Antibiotic susceptibility ([8]; Sa7 (MRSA))?
**A.** S

**Q.** What about the Antibiotic susceptibility ([8]; Sa9 (MRSA)) of the same molecule?
**A.** R

**Q.** What about the Antibiotic susceptibility ([8]; Sa11 (MRSA)) of the same molecule?
**A.** R

**Q.** And the Antibiotic susceptibility ([8]; Sa12 (MRSA))?
**A.** R

**Q.** And the Antibiotic susceptibility ([8]; Sa14 (MRSA))?
**A.** R

**Q.** What about the Antibiotic susceptibility ([8]; Sa15 (MRSA)) of the same molecule?
**A.** R

**Q.** What about the Antibiotic susceptibility ([8]; Sa16 (MRSA)) of the same molecule?
**A.** R

**Q.** What about the Antibiotic susceptibility ([8]; Sa17 (MRSA)) of the same molecule?
**A.** R

**Q.** And the Antibiotic susceptibility ([8]; Sa18 (MRSA))?
**A.** R

**Q.** And the Antibiotic susceptibility ([8]; Sa19 (MRSA))?
**A.** S

**Q.** What about the Antibiotic susceptibility ([8]; Sa20 (MRSA)) of the same molecule?
**A.** R

**Q.** And the Antibiotic susceptibility ([8]; Sa21 (MRSA))?
**A.** S

**Q.** What about the Antibiotic susceptibility ([8]; Sa22 (MRSA)) of the same molecule?
**A.** S

**Q.** And the Antibiotic susceptibility ([8]; Sa23 (MRSA))?
**A.** S

**Q.** And the Antibiotic susceptibility ([9]; Se1 (Staphylococcus epidermidis))?
**A.** R

**Q.** And the Antibiotic susceptibility ([9]; Se2 (Staphylococcus epidermidis))?
**A.** S

**Q.** What about the Antibiotic susceptibility ([9]; Se3 (Staphylococcus epidermidis)) of the same molecule?
**A.** R

**Q.** And the Antibiotic susceptibility ([9]; Se4 (Staphylococcus epidermidis))?
**A.** R

**Q.** And the Antibiotic susceptibility ([9]; Se5 (Staphylococcus epidermidis))?
**A.** R

**Q.** And the Antibiotic susceptibility ([10]; Sh1 (Staphylococcus hominis))?
**A.** R

**Q.** And the Antibiotic susceptibility ([10]; Sh2 (Staphylococcus hominis))?
**A.** S

**Q.** What about the Antibiotic susceptibility ([10]; Sh3 (Staphylococcus hominis)) of the same molecule?
**A.** S

**Q.** What about the Antibiotic susceptibility [6] of the same molecule?
**A.** I

**Q.** Which results are given for C[C@@H](O)[C@H]1C(=O)N2C(C(=O)O)=C(S[C@@H]3CN[C@H](C(=O)N(C)C)C3)[C@H](C)[C@H]12 [MEM, Meropenem]?
**A.** Antibiotic susceptibility ([2]; Kp1 (Klebsiella pneumonia)): S; Antibiotic susceptibility ([4]; Ec1 (E. coli)): S; Antibiotic susceptibility ([4]; Ec2 (E. coli)): S; Antibiotic susceptibility ([4]; Ec3 (E. coli)): S; Antibiotic susceptibility ([4]; Ec4 (E. coli)): S; Antibiotic susceptibility ([4]; Ec5 (E. coli)): S; Antibiotic susceptibility [5]: S; Antibiotic susceptibility [6]: S

**Q.** With NC[C@H]1O[C@H](O[C@H]2[C@H](O)[C@@H](O[C@H]3O[C@H](CO)[C@@H](O)[C@H](N)[C@H]3O)[C@H](N)C[C@@H]2N)[C@H](N)C[C@@H]1O [TOB, Tobramycin] as the molecule, how does the Antibiotic susceptibility [1] read?
**A.** I

**Q.** What about the Antibiotic susceptibility ([2]; Kp1 (Klebsiella pneumonia)) of the same molecule?
**A.** S

**Q.** What about the Antibiotic susceptibility ([2]; Kp6 (Klebsiella pneumonia)) of the same molecule?
**A.** R

**Q.** And the Antibiotic susceptibility ([3]; Ab1 (Acinetobacter baumannii))?
**A.** S

**Q.** And the Antibiotic susceptibility ([3]; Ab2 (Acinetobacter baumannii))?
**A.** S

**Q.** What about the Antibiotic susceptibility ([3]; Ab3 (Acinetobacter baumannii)) of the same molecule?
**A.** S

**Q.** And the Antibiotic susceptibility ([3]; Ab4 (Acinetobacter baumannii))?
**A.** S

**Q.** What about the Antibiotic susceptibility ([3]; Ab5 (Acinetobacter baumannii)) of the same molecule?
**A.** I

**Q.** And the Antibiotic susceptibility ([4]; Ec1 (E. coli))?
**A.** I

**Q.** And the Antibiotic susceptibility ([4]; Ec2 (E. coli))?
**A.** I

**Q.** What about the Antibiotic susceptibility ([4]; Ec3 (E. coli)) of the same molecule?
**A.** I

**Q.** And the Antibiotic susceptibility ([4]; Ec4 (E. coli))?
**A.** R

**Q.** What about the Antibiotic susceptibility ([4]; Ec5 (E. coli)) of the same molecule?
**A.** R

**Q.** And the Antibiotic susceptibility [5]?
**A.** S

**Q.** And the Antibiotic susceptibility [6]?
**A.** I

**Q.** How did the Antibiotic susceptibility [1] turn out when Amoxicillin-clavulanic acid [AMC] was run?
**A.** R

**Q.** And the Antibiotic susceptibility ([2]; Kp1 (Klebsiella pneumonia))?
**A.** S

**Q.** What about the Antibiotic susceptibility ([2]; Kp6 (Klebsiella pneumonia)) of the same molecule?
**A.** I

**Q.** And the Antibiotic susceptibility ([3]; Ab1 (Acinetobacter baumannii))?
**A.** R

**Q.** And the Antibiotic susceptibility ([3]; Ab2 (Acinetobacter baumannii))?
**A.** R

**Q.** What about the Antibiotic susceptibility ([3]; Ab3 (Acinetobacter baumannii)) of the same molecule?
**A.** R

**Q.** What about the Antibiotic susceptibility ([3]; Ab4 (Acinetobacter baumannii)) of the same molecule?
**A.** R

**Q.** And the Antibiotic susceptibility ([3]; Ab5 (Acinetobacter baumannii))?
**A.** S

**Q.** And the Antibiotic susceptibility ([4]; Ec1 (E. coli))?
**A.** S

**Q.** What about the Antibiotic susceptibility ([4]; Ec2 (E. coli)) of the same molecule?
**A.** S

**Q.** And the Antibiotic susceptibility ([4]; Ec3 (E. coli))?
**A.** S

**Q.** What about the Antibiotic susceptibility ([4]; Ec4 (E. coli)) of the same molecule?
**A.** S

**Q.** And the Antibiotic susceptibility ([4]; Ec5 (E. coli))?
**A.** I

**Q.** And the Antibiotic susceptibility [5]?
**A.** R

**Q.** What about the Antibiotic susceptibility [6] of the same molecule?
**A.** I

**Q.** For Ampicillin-Sulbactam [SAM], which Antibiotic susceptibility [1] is on record?
**A.** R

**Q.** What about the Antibiotic susceptibility ([2]; Kp1 (Klebsiella pneumonia)) of the same molecule?
**A.** R

**Q.** What about the Antibiotic susceptibility ([2]; Kp6 (Klebsiella pneumonia)) of the same molecule?
**A.** R

**Q.** And the Antibiotic susceptibility ([3]; Ab1 (Acinetobacter baumannii))?
**A.** S

**Q.** And the Antibiotic susceptibility ([3]; Ab2 (Acinetobacter baumannii))?
**A.** S

**Q.** And the Antibiotic susceptibility ([3]; Ab3 (Acinetobacter baumannii))?
**A.** S

**Q.** And the Antibiotic susceptibility ([3]; Ab4 (Acinetobacter baumannii))?
**A.** S

**Q.** What about the Antibiotic susceptibility ([3]; Ab5 (Acinetobacter baumannii)) of the same molecule?
**A.** I

**Q.** And the Antibiotic susceptibility ([4]; Ec1 (E. coli))?
**A.** R

**Q.** And the Antibiotic susceptibility ([4]; Ec2 (E. coli))?
**A.** I

**Q.** What about the Antibiotic susceptibility ([4]; Ec3 (E. coli)) of the same molecule?
**A.** I

**Q.** And the Antibiotic susceptibility ([4]; Ec4 (E. coli))?
**A.** R

**Q.** And the Antibiotic susceptibility ([4]; Ec5 (E. coli))?
**A.** R

**Q.** Which results are given for Piperacillin-tazobactam [TZP]?
**A.** Antibiotic susceptibility [1]: S; Antibiotic susceptibility ([2]; Kp1 (Klebsiella pneumonia)): S; Antibiotic susceptibility ([2]; Kp6 (Klebsiella pneumonia)): R; Antibiotic susceptibility ([3]; Ab3 (Acinetobacter baumannii)): R; Antibiotic susceptibility ([4]; Ec1 (E. coli)): S; Antibiotic susceptibility ([4]; Ec2 (E. coli)): S; Antibiotic susceptibility ([4]; Ec3 (E. coli)): S; Antibiotic susceptibility ([4]; Ec4 (E. coli)): S; Antibiotic susceptibility ([4]; Ec5 (E. coli)): S; Antibiotic susceptibility [5]: R; Antibiotic susceptibility [6]: I

Reference: patent publication US12502362B2, “Inhibitors of nucleotidyltransferase superfamily enzymes as antibiotics” (priority 2017, dated 2025)
